In the kinase profiling compilation of Christmann-Franck et al. (2016):

Tests used:
Test in all cases: KINOMEscan competition binding
Details in all cases: compound 1.0 µM
AKT1 (human) = AKT1 (human) (UniProt P31749)
AKT2 (human) = AKT2 (human) (UniProt P31751)
AURKB (human) = AURKB (human) (UniProt Q96GD4)
CDC42BPG (human) = CDC42BPG (human) (UniProt Q6DT37)
CDK17 (human) = CDK17 (human) (UniProt Q00537)
CDK18 (human) = CDK18 (human) (UniProt Q07002)
CDK7 (human) = CDK7 (human) (UniProt P50613)
CSNK1A1L (human) = CSNK1A1L (human) (UniProt Q8N752)
EGFR (human) = EGFR (human) (UniProt P00533)
EPHA1 (human) = EPHA1 (human) (UniProt P21709)
EPHA5 (human) = EPHA5 (human) (UniProt P54756)
ERBB2 (human) = ERBB2 (human) (UniProt P04626)
FER (human) = FER (human) (UniProt P16591)
HCK (human) = HCK (human) (UniProt P08631)
HIPK2 (human) = HIPK2 (human) (UniProt Q9H2X6)
INSR (human) = INSR (human) (UniProt P06213)
[1] = target: JAK1 JH1 catalytic (human) (UniProt P23458)
[2] = target: JAK3 JH1 catalytic (human) (UniProt P52333)
[3] = system: KIT (human), P10721 [V559D/V654A]
MAP2K4 (human) = MAP2K4 (human) (UniProt P45985)
MARK1 (human) = MARK1 (human) (UniProt Q9P0L2)
[4] = system: MET (human), P08581 [M1250T]
MKNK2 (human) = MKNK2 (human) (UniProt Q9HBH9)
MST1R (human) = MST1R (human) (UniProt Q04912)
MYLK (human) = MYLK (human) (UniProt Q15746)
NEK6 (human) = NEK6 (human) (UniProt Q9HC98)
PAK2 (human) = PAK2 (human) (UniProt Q13177)
PIP5K1A (human) = PIP5K1A (human) (UniProt Q99755)
PRKACA (human) = PRKACA (human) (UniProt P17612)
STK11 (human) = STK11 (human) (UniProt Q15831)
STK32B (human) = STK32B (human) (UniProt Q9NY57)
STK36 (human) = STK36 (human) (UniProt Q9NRP7)
STK38 (human) = STK38 (human) (UniProt Q15208)
STK39 (human) = STK39 (human) (UniProt Q9UEW8)
TEC (human) = TEC (human) (UniProt P42680)
TNNI3K (human) = TNNI3K (human) (UniProt Q59H18)
TTK (human) = TTK (human) (UniProt P33981)
ULK2 (human) = ULK2 (human) (UniProt Q8IYT8)
YES1 (human) = YES1 (human) (UniProt P07947)
YSK4 (human) = YSK4 (human) (UniProt Q56UN5)

Sequence of STK38 (human) (Q15208 whole entry, looked up): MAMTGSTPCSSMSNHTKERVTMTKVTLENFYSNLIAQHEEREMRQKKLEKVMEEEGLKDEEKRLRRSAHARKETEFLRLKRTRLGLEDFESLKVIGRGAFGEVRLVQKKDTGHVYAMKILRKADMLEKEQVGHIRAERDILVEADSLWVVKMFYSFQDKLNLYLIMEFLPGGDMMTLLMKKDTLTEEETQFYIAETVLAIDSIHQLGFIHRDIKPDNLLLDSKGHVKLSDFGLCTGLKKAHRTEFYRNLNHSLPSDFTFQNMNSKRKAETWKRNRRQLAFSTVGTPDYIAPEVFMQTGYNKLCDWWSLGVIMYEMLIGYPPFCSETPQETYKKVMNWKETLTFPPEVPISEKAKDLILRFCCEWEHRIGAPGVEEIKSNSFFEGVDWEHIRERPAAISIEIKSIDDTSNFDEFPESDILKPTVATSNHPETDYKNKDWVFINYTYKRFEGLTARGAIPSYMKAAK
Sequence of ERBB2 (human) (P04626 whole entry, looked up): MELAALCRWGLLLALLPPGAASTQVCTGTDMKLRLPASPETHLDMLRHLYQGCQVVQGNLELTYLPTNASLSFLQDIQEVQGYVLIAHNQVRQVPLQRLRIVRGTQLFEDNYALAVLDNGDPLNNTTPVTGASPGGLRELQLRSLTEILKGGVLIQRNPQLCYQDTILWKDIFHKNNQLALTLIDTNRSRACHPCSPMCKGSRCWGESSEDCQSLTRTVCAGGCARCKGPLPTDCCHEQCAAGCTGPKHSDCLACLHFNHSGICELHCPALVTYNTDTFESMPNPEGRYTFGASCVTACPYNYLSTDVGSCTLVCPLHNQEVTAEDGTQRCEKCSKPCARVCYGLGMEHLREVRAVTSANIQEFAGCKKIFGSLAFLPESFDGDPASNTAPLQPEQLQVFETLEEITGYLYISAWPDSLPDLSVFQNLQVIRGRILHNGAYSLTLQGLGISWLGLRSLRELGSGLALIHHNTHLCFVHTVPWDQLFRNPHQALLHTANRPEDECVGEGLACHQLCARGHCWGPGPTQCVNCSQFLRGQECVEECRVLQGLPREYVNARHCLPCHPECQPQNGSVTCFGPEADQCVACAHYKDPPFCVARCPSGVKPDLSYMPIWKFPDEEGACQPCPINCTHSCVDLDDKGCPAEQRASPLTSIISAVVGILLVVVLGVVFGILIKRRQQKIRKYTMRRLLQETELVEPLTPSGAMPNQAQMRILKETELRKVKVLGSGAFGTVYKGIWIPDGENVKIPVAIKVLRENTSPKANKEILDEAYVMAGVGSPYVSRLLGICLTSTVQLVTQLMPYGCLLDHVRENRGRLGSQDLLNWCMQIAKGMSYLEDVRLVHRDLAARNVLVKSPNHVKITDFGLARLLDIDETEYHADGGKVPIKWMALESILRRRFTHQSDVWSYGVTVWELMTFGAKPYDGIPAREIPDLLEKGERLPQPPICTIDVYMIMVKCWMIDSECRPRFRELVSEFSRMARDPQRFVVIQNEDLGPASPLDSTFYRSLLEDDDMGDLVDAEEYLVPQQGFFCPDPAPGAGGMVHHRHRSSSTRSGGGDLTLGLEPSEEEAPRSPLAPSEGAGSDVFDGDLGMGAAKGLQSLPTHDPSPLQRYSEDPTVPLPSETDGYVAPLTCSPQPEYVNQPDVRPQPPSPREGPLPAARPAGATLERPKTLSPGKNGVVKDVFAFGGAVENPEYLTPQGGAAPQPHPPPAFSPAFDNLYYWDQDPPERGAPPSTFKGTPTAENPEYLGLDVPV
Sequence of JAK3 JH1 catalytic (human) (P52333 whole entry, looked up): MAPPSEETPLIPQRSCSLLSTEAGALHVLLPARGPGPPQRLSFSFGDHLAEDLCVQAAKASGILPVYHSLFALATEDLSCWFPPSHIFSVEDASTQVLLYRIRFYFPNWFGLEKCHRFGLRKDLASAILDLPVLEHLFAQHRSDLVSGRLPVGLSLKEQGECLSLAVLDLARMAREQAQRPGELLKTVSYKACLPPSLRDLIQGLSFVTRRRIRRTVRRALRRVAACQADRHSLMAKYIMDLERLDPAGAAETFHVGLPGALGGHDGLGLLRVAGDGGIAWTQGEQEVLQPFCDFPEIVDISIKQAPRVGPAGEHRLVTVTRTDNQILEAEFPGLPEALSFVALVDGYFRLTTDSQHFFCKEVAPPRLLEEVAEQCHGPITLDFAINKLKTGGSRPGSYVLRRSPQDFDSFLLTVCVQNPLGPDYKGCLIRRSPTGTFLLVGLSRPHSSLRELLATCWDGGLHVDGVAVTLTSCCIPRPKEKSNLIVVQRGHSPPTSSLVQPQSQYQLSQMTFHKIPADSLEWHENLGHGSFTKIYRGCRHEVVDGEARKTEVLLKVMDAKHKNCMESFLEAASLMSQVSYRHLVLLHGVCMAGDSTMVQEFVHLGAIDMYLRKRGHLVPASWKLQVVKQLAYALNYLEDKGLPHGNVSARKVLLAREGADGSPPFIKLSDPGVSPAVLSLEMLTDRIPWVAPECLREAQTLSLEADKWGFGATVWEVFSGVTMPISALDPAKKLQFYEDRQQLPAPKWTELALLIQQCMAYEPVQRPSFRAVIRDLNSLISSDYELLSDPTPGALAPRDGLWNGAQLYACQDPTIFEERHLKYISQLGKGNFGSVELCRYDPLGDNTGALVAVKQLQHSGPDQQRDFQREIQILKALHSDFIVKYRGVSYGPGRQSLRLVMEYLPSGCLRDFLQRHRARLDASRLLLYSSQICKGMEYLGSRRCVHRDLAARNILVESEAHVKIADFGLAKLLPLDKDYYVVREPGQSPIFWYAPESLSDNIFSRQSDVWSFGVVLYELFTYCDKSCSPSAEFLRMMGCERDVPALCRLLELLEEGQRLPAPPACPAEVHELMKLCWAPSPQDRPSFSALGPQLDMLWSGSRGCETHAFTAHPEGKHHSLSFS
Sequence of ULK2 (human) (Q8IYT8 whole entry, looked up): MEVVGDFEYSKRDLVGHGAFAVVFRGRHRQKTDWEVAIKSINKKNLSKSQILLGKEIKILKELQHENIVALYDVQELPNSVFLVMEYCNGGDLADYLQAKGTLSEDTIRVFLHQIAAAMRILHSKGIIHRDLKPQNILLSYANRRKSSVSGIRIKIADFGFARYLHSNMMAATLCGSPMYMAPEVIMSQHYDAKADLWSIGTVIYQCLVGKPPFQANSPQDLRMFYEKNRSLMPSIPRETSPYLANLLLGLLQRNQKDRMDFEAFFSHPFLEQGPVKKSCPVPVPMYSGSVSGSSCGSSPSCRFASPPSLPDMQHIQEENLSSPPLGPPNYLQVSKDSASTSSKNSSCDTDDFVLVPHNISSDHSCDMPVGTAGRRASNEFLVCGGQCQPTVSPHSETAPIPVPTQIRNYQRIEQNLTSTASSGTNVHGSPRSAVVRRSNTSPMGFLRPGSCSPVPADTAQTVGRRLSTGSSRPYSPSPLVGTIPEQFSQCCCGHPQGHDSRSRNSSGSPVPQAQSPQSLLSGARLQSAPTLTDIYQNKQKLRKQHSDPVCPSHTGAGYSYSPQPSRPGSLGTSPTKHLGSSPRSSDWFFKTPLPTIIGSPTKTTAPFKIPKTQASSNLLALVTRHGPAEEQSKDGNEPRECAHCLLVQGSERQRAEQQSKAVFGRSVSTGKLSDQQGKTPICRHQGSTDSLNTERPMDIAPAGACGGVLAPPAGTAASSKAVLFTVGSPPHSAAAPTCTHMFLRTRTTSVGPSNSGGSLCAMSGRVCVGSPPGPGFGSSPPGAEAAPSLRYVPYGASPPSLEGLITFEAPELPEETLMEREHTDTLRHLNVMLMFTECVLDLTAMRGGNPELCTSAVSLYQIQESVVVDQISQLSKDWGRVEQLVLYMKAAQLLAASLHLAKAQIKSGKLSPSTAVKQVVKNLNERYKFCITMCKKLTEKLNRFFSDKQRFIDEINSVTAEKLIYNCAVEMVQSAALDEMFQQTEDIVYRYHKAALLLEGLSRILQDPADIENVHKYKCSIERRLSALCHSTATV
Sequence of TEC (human) (P42680 whole entry, looked up): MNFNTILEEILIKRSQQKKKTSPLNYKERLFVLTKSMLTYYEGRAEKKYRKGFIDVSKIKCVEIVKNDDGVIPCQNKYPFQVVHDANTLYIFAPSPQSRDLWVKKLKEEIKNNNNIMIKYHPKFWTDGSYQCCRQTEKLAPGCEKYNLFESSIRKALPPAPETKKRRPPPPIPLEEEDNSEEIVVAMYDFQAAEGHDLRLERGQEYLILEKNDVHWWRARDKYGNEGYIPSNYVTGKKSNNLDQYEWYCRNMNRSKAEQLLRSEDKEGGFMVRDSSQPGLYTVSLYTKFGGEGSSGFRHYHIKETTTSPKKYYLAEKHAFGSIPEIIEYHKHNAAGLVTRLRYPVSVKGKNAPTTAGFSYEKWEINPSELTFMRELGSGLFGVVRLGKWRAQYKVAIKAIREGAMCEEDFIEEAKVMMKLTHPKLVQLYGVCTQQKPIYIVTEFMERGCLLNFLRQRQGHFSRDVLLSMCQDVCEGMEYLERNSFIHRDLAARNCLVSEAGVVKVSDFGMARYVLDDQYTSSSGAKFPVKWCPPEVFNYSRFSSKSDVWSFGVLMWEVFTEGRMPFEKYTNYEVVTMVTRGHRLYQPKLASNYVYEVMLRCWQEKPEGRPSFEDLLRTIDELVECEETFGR
Sequence of MKNK2 (human) (Q9HBH9 whole entry, looked up): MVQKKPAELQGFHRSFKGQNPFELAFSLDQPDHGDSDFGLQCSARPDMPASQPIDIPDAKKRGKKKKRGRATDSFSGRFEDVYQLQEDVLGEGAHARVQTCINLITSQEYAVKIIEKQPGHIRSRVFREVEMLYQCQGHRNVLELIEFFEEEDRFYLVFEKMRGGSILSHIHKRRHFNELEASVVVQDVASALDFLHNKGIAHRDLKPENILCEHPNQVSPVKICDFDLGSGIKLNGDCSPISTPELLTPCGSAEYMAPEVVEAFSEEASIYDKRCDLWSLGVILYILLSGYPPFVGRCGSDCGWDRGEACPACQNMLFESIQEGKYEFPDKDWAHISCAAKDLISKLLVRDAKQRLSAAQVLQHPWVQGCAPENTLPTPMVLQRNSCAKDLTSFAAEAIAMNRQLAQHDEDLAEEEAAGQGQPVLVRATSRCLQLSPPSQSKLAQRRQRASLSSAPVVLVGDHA

inhibition of binding (AKT1 (human)): 0%
inhibition of binding (AKT2 (human)): 0%
inhibition of binding (AURKB (human)): 0%
inhibition of binding (CDC42BPG (human)): 0%
inhibition of binding (CDK17 (human)): 26%
inhibition of binding (CDK18 (human)): 34%
inhibition of binding (CDK7 (human)): 0%
inhibition of binding (CSNK1A1L (human)): 0%
inhibition of binding (EGFR (human)): 10%
inhibition of binding (EPHA1 (human)): 2%
inhibition of binding (EPHA5 (human)): 0%
inhibition of binding (ERBB2 (human)): 24%
inhibition of binding (FER (human)): 0%
inhibition of binding (HCK (human)): 0%
inhibition of binding (HIPK2 (human)): 0%
inhibition of binding (INSR (human)): 30%
inhibition of binding [1]: 38%
inhibition of binding [2]: 100%
inhibition of binding [3]: 0%
inhibition of binding (MAP2K4 (human)): 15%
inhibition of binding (MARK1 (human)): 0%
inhibition of binding [4]: 20%
inhibition of binding (MKNK2 (human)): 5%
inhibition of binding (MST1R (human)): 0%
inhibition of binding (MYLK (human)): 12%
inhibition of binding (NEK6 (human)): 0%
inhibition of binding (PAK2 (human)): 17%
inhibition of binding (PIP5K1A (human)): 0%
inhibition of binding (PRKACA (human)): 0%
inhibition of binding (STK11 (human)): 0%
inhibition of binding (STK32B (human)): 11%
inhibition of binding (STK36 (human)): 0%
inhibition of binding (STK38 (human)): 1%
inhibition of binding (STK39 (human)): 2%
inhibition of binding (TEC (human)): 3%
inhibition of binding (TNNI3K (human)): 0%
inhibition of binding (TTK (human)): 7%
inhibition of binding (ULK2 (human)): 0%
inhibition of binding (YES1 (human)): 0%
inhibition of binding (YSK4 (human)): 21%
Compound: Nc1cc(C(F)(F)F)c(-c2cc(N3CCOCC3)nc(N3CCOCC3)n2)cn1
